Like-named read-outs stand apart in the source and are kept apart here.
Experiments:
[1] = test system: H1703; test: ATP Assay (CellTiter-Glo), cellular ATP levels as surrogate for cell viability; assay type: cell-based, human; details: cellular ATP levels, 48 h, read-out: EC50 H1703
Description: (§1) ATP Assay. […] At that time, media was removed and replaced with a solution of CellTiter-Glo reagent (Promega) in PBS. After ten minutes, luminescence was read using an EnVision multilabel plate reader (Perkin-Elmer) and signal intensity was calculated relative to in-plate DMSO control wells.
(§2) We next sought to determine the performance of the synthetic analogs relative to PL in cells. […] As a second assay, effects of compound treatments on ATP levels, a surrogate for cell viability, were measured after 48 hours.
(§3) Assays were performed in 384-well plates on two human cancer cell lines, H1703 (lung) and HeLa (cervix).

[2] = test system: HeLa; test: as above; assay type: cell-based, human; details: cellular ATP levels, 48 h, read-out: EC50 HeLa
Description: as §1, §2, §3

[3] = Homo sapiens, NCI-H1703, Table 1
[4] = Homo sapiens, NCI-H1703, Table 2

Structure (SMILES) | EC50 [1, 4] [µM] | EC50 ([2]; Homo sapiens, HeLa, Table 2) [µM] | further results
COC(=O)CSC1CCN(C(=O)/C=C/c2cc(OC)c(OC)c(OC)c2)C(=O)C1 (stereo not shown) [Cpd. 7] |  |  | EC50 [1, 3]: 7.9 µM; EC50 ([2]; Homo sapiens, HeLa, Table 1): > 20 µM
COc1cc(/C=C/C(=O)N2C(=O)C=CCC2c2ccsc2)cc(OC)c1OC (stereo not shown) [Cpd. 7] | 2 | 2 | 
C=C(C)C(=O)NC(=O)/C=C/C [Cpd. 76, (E)-N-methacryloylbut-2-enamide] | 8 | > 20 | 
COc1cc(/C=C/C(=O)N2CCC=C(C)C2=O)cc(OC)c1OC [compound 3, (E)-3-methyl-1-(3-(3,4,5-trimethoxyphenyl)prop-2-enoyl)-5,6-dihydropyridin-2(1H)-one] |  |  | EC50 [1, 3]: > 20 µM; EC50 ([1]; Table 2): > 20 µM; EC50 ([2]; Homo sapiens, HeLa, Table 1): > 20 µM; EC50 ([2]; Table 2): > 20 µM
COc1cc(/C=C/C(=O)N2C(=O)C=CCC2c2cccnc2)cc(OC)c1OC (stereo not shown) [compound 8] | 3 | 6 | 
COc1cc(/C=C/C(=O)N2CCC(C)=CC2=O)cc(OC)c1OC [compound 8] |  |  | EC50 [1, 3]: > 20 µM; EC50 ([2]; Homo sapiens, HeLa, Table 1): > 20 µM
C/C(=C\C(=O)N1CCC=CC1=O)c1ccccc1 [compound 9] |  |  | EC50 [1, 3]: 14 µM; EC50 ([2]; Homo sapiens, HeLa, Table 1): > 20 µM
COc1ccc(C2CC=CC(=O)N2C(=O)/C=C/c2cc(OC)c(OC)c(OC)c2)cc1 (stereo not shown) [compound 9] | 4 | 7 | 
COc1cc(/C=C/C(=O)N2C(=O)C=CCC2c2cccs2)cc(OC)c1OC (stereo not shown) [compound 10] | 2 | 4 | 
O=C1C=CCCN1C(=O)c1cc2ccccc2s1 [compound 10] |  |  | EC50 [1, 3]: 18 µM; EC50 ([2]; Homo sapiens, HeLa, Table 1): > 20 µM
COc1cc(/C=C/C(=O)N2C(=O)C=CCC2C2CCCCC2)cc(OC)c1OC (stereo not shown) [compound 11] | 6 | 7 | 
COc1cc2c(c(OC)c1OC)CCC(C(=O)N1CCC=CC1=O)=C2 [compound 11] |  |  | EC50 [1, 3]: 14 µM; EC50 ([2]; Homo sapiens, HeLa, Table 1): > 20 µM
COc1cc(/C=C/C(=O)N2C(=O)C=CCC2C2CCCC2)cc(OC)c1OC (stereo not shown) [compound 12] | 6 | 6 | 
O=C1C=CCCN1C(=O)/C=C/c1ccccc1Cl [compound 13] |  |  | EC50 [1, 3]: 4 µM; EC50 ([2]; Homo sapiens, HeLa, Table 1): 7.5 µM
COc1cc(/C=C/C(=O)N2C(=O)C=CCC2c2ccccc2)cc(OC)c1OC (stereo not shown) [compound 14] |  |  | EC50 [1, 3]: 3.6 µM; EC50 ([2]; Homo sapiens, HeLa, Table 1): 6.8 µM
O=Cc1ccc(/C=C/C(=O)N2CCC=CC2=O)cc1 [compound 14] | 5 | 8 | 
COc1cc(/C=C/C(=O)N2CC(c3cccs3)C=CC2=O)cc(OC)c1OC (stereo not shown) [compound 15] |  |  | EC50 [1, 3]: 6.5 µM; EC50 ([2]; Homo sapiens, HeLa, Table 1): 15 µM
O=C1C=CCCN1C(=O)c1cc2ccccc2o1 [compound 15] | 10 | 20 | 
O=C1C=CCCN1S(=O)(=O)/C=C/c1ccccc1 [compound 16] |  |  | EC50 [1, 3]: 2.7 µM; EC50 ([2]; Homo sapiens, HeLa, Table 1): 4.1 µM
COc1cc(/C=C/C(=O)N2CCC=C(C#CC3CCCC3)C2=O)cc(OC)c1OC [compound 17] | 1 | 3 | 
COc1cc(/C=C/C(=O)N2CCC=C(c3ccccc3)C2=O)cc(OC)c1OC [compound 18] |  |  | EC50 [1, 3]: > 20 µM; EC50 ([2]; Homo sapiens, HeLa, Table 1): > 20 µM
O=C1C=CCCN1C(=O)/C=C/c1cccc(C(F)(F)F)c1 [compound 18] | 5 | 6 | 
COC1=CC(=O)N(C(=O)/C=C/c2cc(OC)c(OC)c(OC)c2)C1 [compound 19] |  | > 20 | 

Structure (SMILES) | EC50 [1, 4] [µM] | EC50 ([2]; Homo sapiens, HeLa, Table 2) [µM] | further results
COc1cc(/C=C/C(=O)N2CCC=C(c3ccc(F)cc3)C2=O)cc(OC)c1OC [compound 20] | > 20 | > 20 | 
CCC1=C(C)CN(C(=O)/C=C/c2cc(OC)c(OC)c(OC)c2)C1=O [compound 21] | > 20 | > 20 | 
O=C1C=CCCN1C(=O)c1ccc2ccccc2c1 [compound 22] | 9 | 20 | 
COc1cc(/C=C/C(=O)N2CCC=CC2=O)c(F)c(OC)c1OC [compound 23] | 0.8 | 3 | 
COc1cc(/C=C/C(=O)N2CCC=C(c3cccnc3)C2=O)cc(OC)c1OC [compound 24] | > 20 | > 20 | 
COc1cc(/C=C/C(=O)N2CCC(C)=CC2=O)cc(OC)c1OC [compound 26] |  |  | EC50 ([1]; Table 2): > 20 µM; EC50 ([2]; Table 2): > 20 µM
C/C(=C\C(=O)N1CCC=CC1=O)c1ccccc1 [compound 27] |  |  | EC50 ([1]; Table 2): 14 µM; EC50 ([2]; Table 2): > 20 µM
O=C1C=CCCN1C(=O)c1cc2ccccc2s1 [compound 28] |  |  | EC50 ([1]; Table 2): 18 µM; EC50 ([2]; Table 2): > 20 µM
CCCCC#CC1=CCCN(C(=O)/C=C/c2cc(OC)c(OC)c(OC)c2)C1=O [compound 31] | 0.9 | 2 | 
COc1cc(/C=C/C(=O)N2CCC=CC2=O)cc(OC)c1OCCN(C)C [compound 32] | 1.5 | 4 | 
O=C1C=CCCN1C(=O)c1cc2ccccc2oc1=O [compound 34] | 5 | 15 | 
COc1cc(/C=C/C(=O)N2CCC=C(C#Cc3ccccc3Cl)C2=O)cc(OC)c1OC [compound 35] | 0.6 | 1.5 | 
COc1cc(/C=C/C(=O)N2CCC=C(C#CC3(O)CCCCC3)C2=O)cc(OC)c1OC [compound 36] | 0.5 | 1.5 | 
COc1cc(/C=C(\C)C(=O)N2CCC=CC2=O)cc(OC)c1OC [compound 37] | 4 | 18 | 
COc1cc(/C=C/C(=O)N2CCC=C(C#Cc3cccc(Cl)c3)C2=O)cc(OC)c1OC [compound 40] | 1.5 | 5 | 
COc1cc(/C=C/C(=O)N2CCC=CC2=O)cc(OC)c1OCCN(CCOc1c(OC)cc(/C=C/C(=O)N2CCC=CC2=O)cc1OC)CCOc1c(OC)cc(/C=C/C(=O)N2CCC=CC2=O)cc1OC [compound 41] | 0.1 | 0.3 | 
CC1=C(C(=O)N2CCC=CC2=O)Cc2ccccc21 [compound 42] | 12 | > 20 | 
COc1cc(/C=C/C(=O)N2CCC=C(C#CC(C)(C)C)C2=O)cc(OC)c1OC [compound 43] | 0.7 | 1.2 | 
COc1cc(/C=C/C(=O)N2CCC=C(C3CCCCC3)C2=O)cc(OC)c1OC [compound 44] | > 20 | > 20 | 
COc1cc(/C=C/C(=O)N2CCC=C(C#CC3=CCCCC3)C2=O)cc(OC)c1OC [compound 45] | 3 | 5 | 
COc1cc(/C=C/C(=O)N2CC=CCC2=O)cc(OC)c1OC [compound 46] | 13 | > 20 | 
COc1cc(/C=C/C(=O)N2CCC(C)=C(C)C2=O)cc(OC)c1OC [compound 47] | > 20 | > 20 | 
COc1cc(/C=C/C(=O)N2CCC=C(C#Cc3ccc(OC(F)(F)F)cc3)C2=O)cc(OC)c1OC [compound 48] | 0.7 | 3 | 

Structure (SMILES) | EC50 [1, 4] [µM] | EC50 ([2]; Homo sapiens, HeLa, Table 2) [µM] | further results
O=C1C=CCCN1C(=O)/C=C/c1ccccc1Cl [compound 49] |  |  | EC50 ([1]; Table 2): 4 µM; EC50 ([2]; Table 2): 7.5 µM
COc1cc(/C=C/C(=O)N2C(=O)C=CCC2c2ccccc2)cc(OC)c1OC (stereo not shown) [compound 50] |  |  | EC50 ([1]; Table 2): 3.6 µM; EC50 ([2]; Table 2): 6.8 µM
COc1cc(/C=C/C(=O)N2CC(c3cccs3)C=CC2=O)cc(OC)c1OC (stereo not shown) [compound 51] |  |  | EC50 ([1]; Table 2): 6.5 µM; EC50 ([2]; Table 2): 15 µM
COc1cc(/C=C/C(=O)N2CCC=C(c3ccccc3)C2=O)cc(OC)c1OC [compound 54] |  |  | EC50 ([1]; Table 2): > 20 µM; EC50 ([2]; Table 2): > 20 µM
COc1cc(/C=C/C(=O)N2CCC=C(I)C2=O)cc(OC)c1OC [compound 55] | 3 | > 20 | 
CCCCCCCCCCC#CC1=CCCN(C(=O)/C=C/c2cc(OC)c(OC)c(OC)c2)C1=O [compound 57] | 4 | 9 | 
COc1cc(/C=C(\F)C(=O)N2CCC=CC2=O)cc(OC)c1OC [compound 58] | 8 | 11 | 
COc1cc(/C=C/C(=O)N2CCC=C(C#CC3CCCCC3)C2=O)cc(OC)c1OC [compound 59] | 1.5 | 3 | 
COc1cc(/C=C/C(=O)N2CCC=C(C#Cc3ccccc3)C2=O)cc(OC)c1OC [compound 61] | 0.5 | 1.5 | 
O=C1C=CCCN1C(=O)/C=C/c1cccc(Br)c1 [compound 62] | 5 | 7 | 
COc1cc(/C=C/C(=O)N2CCC=C(C#CCc3ccccc3)C2=O)cc(OC)c1OC [compound 63] | 2 | 10 | 
COc1cc(CCC(=O)N2CCCCC2=O)cc(OC)c1OC [compound 65] |  | > 20 | 
COc1cc(/C=C/C(=O)N2CCC=C(c3ccc(C)cc3)C2=O)cc(OC)c1OC [compound 66] |  | > 20 | 
COc1cc(/C=C/C(=O)N2CCC=CC2=O)cc(OC)c1OCCN(C)CCOc1c(OC)cc(/C=C/C(=O)N2CCC=CC2=O)cc1OC [compound 67] | 0.2 | 0.5 | 
COc1cc(/C=C/C(=O)N2CCC=C(C#Cc3ccc(F)cc3)C2=O)cc(OC)c1OC [compound 68] | 0.4 | 0.9 | 
COc1cc(/C=C/C(=O)N2CCC=C(C#Cc3ccsc3)C2=O)cc(OC)c1OC [compound 69] | 1 | 2 | 
O=C1C=CCCN1C(=O)/C(F)=C/c1ccccc1 [compound 70] | 10 | > 20 | 
COc1cc(/C=C/C(=O)N2CCC=C(c3ccc(Oc4ccccc4)cc3)C2=O)cc(OC)c1OC [compound 71] | > 20 | > 20 | 
C=C(C)C(=O)N1CCC=CC1=O [compound 73] | 4.7 | 19 | 
O=C1C=CCCN1C(=O)/C=C/C(=O)N1CCC=CC1=O [compound 74] | 2.3 | 11 | 
O=C(C#Cc1ccccc1)N1CCC=CC1=O [compound 75] | 0.91 | 4.1 | 
